Results taken from patent US20250127778A1, “CANCER IMMUNOTHERAPY COMPOSITION CONTAINING INTERACTION INHIBITOR OF STING AND TRIM29 AS ACTIVE INGREDIENT” (SPARK BIOPHARMA, INC, priority 2021, published 2025).

How the values were obtained:
STING = target: T1, STING (Mus musculus, UniProt Q3TBT3); experiment: CETSA and ITDRF in Raw264.7 cells, STING; type: binding; design: endogenous in cells; host or cells: Raw264.7
T1 sequence (Q3TBT3 1-378): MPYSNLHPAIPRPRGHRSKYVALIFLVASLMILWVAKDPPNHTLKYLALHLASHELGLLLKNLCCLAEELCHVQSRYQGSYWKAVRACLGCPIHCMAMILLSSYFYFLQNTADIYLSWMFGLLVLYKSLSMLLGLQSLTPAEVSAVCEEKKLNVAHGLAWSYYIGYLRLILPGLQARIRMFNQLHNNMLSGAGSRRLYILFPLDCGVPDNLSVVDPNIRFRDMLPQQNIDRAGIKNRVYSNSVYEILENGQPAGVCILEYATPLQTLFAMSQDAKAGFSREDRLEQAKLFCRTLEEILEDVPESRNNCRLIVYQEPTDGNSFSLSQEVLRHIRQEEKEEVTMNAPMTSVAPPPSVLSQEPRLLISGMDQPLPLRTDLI
Text: It was verified whether the oxopiperazine derivative of the present invention was bound to STING among STING and TRIM29 to inhibit interaction thereof, based on the compound of Formula 1, by the cellular thermal shift assay (CETSA) and the isothermal dose response fingerprint (ITDRF) which were major technologies for verifying the interaction between small molecule compounds and target proteins. (D. M. Molinaetal., Science 2013, 341, 84-87.)
To verify the target of the compound of Formula 1 using the CETSA technique, the human A431 cell lines and mouse Raw264.7 cell lines were seeded on a 100-mm or 150-mm culture dish and cultured for one day. […] Afterwards, centrifugation was performed at 20000 g for 20 minutes at 4° C., the supernatant was transferred to a new container, and each concentration was measured by using the Micro BCA™ protein assay kit (ThermoFisher) according to the protocol of the manufacturer. The concentration of each sample was equally adjusted by using the RIPA lysis buffer, the 5× SDS-PAGE loading buffer (Biosesang) was added according to the ratio of the manufacturer, and the resultant was treated at 95° C. for 5 minutes and analyzed by using the Western blotting method described above.

[1] = tested on: tumor-infiltrating leukocytes (TILs); experiment: Flow cytometry of tumor-infiltrating immune cells; type: in vivo, mouse; details: combination with cGAMP, FIG. 26
Procedure: The tumors were extracted after the mice were euthanized with carbon dioxide. The tumor tissues were divided into small pieces with a razor blade, treated with the DMEM solution including 2% horse serum, 0.5 mg/ml of collagenase D, and 40 μg/mL of DNase I for one hour at 37° C., and permeated through a 40-μm filter, thereby being separated into individual cells. Tumor-infiltrating leukocytes (TILs) were separated from the separated cells by percoll concentration-gradient centrifugation, and red blood cells were removed by treatment with red blood cell lysis solution. The obtained cells were redistributed in the FACS solution described above, and FcγRII/III receptors of individual immune cells were neutralized by treatment with the anti-mouse CD16/CD32 Abs (clone 2.4G2) antibody at 4° C. for 10 minutes. The treatment with primary antibodies for individual cell differentiation were performed at 4° C. for 30 minutes. The treated cells were redistributed into a PBS solution after centrifugation and then further centrifuged to remove the supernatant. The cells were fixed by the treatment with 4% paraformaldehyde (PFA) solution at room temperature for 10 minutes, treated with Triton solution (PBS solution including 0.1% BSA and 0.5% Triton-X-100), and centrifuged, and then the supernatant was removed. Cytokine (IFNγ(XMG1.2)-APC, Perforin(S16009A)-PE, granzyme B(QA16A02)-FITC, Biolegend) primary antibodies were treated at room temperature for two hours. Finally, the Triton solution was added, centrifugation was performed, the supernatant was removed, the cells were redistributed into 200 μL of the Triton solution and analyzed by using a FACSCalibur device from BD Bioscience, and the results were quantitatively analyzed by using the FlowJo program from Tree Star, Inc.

CD8+ T cells = experiment: T cell death analysis (Annexin V/7-AAD) of CD8+ T cells; type: cell-based; details: alone or in combination with cGAMP, 24 hours; FIG. 21
Procedure: CD8^+ T cells were obtained from the lymph nodes of C57BL/6 mice and separated by using MACS. CD8^+ T cells were activated on plates pre-coated with 1 μg/mL anti-CD3 and 0.5 μg/mL of anti-CD28 in the presence of 5 ng/ml of IL-2. After incubation for 24 hours in a 5% CO2 incubator at 37° C., activated CD8^+ T cells were treated with cGAMP and/or the compound of Formula 1 in various concentrations and incubated for additional 24 hours. The cells were harvested and stained with Annexin V/7-AAD to observe cell death. Data shown refer to at least three independent experiments.

[2] = tested on: primary tumor and secondary tumor; experiment: Primary and secondary tumor model for anticancer immune system construction; type: in vivo, mouse; details: FIG. 30
Text: It was verified whether, under the treatment of cGAMP and the compound of Formula 1 in combination, in addition to the results of increasing the antigen presentation efficacy that were confirmed in FIGS. 18 to 21, the anticancer immune system was constructed throughout the organism also in the animal model, so that activated cytotoxic T cells were able to remove cancer cells in other locations to which drugs are not injected.

tumor = experiment: Combination with PD-1 antibody immune checkpoint therapeutic agent in tumor model; type: in vivo, mouse; details: intratumoral, combination with intravenous PD-1 antibody compared to PD-1 antibody alone; FIG. 32
Text: It was confirmed whether the efficacy can be increased in case of treating in combination with existing immune checkpoint therapeutic agents from the efficacy of constructing the systemic anticancer immune system of the compound of Formula 1.

[3] = combination with cGAMP compared with single administration of cGAMP

## COc1ccc(CC2=CN(c3ccc(C(=O)NC[C@H]4CCCO4)cc3[N+](=O)[O-])[C@H](C(C)C)C(=O)N2Cc2ccc(O)cc2)cc1 [Formula 1, 4-((R)-4-(4-hydroxybenzyl)-2-isopropyl-5-(4-methoxybenzyl)-3-oxo-3,4-dihydropyrazin-1 (2H)-yl)-3-nitro-N-(((R)-tetrahydrofuran-2-yl)methyl)benzamide]
STING; FIG. 13
  CETSA thermal stability of STING: induced thermal destabilization by selective binding only to STING
STING; FIG. 14
  ITDRF thermal stability of STING: reduced the thermal stability of STING at high concentrations in a concentration-dependent manner
[1]; ratio of CD45+ cells
  infiltration of total T cells and cytotoxic T cells into the tumor: increased
[1]
  activity of infiltrated cytotoxic T cells (TNF-α, granzyme B, Perforin): increased
  total ratio of myeloid-derived suppressor cells (MDSC): decreased
CD8+ T cells
  death of cytotoxic T cells: did not induce or promote the death of cytotoxic T cells
[2]; [3]
  final tumor mass of primary tumor: reduced
  primary tumor growth: inhibited
[2]; secondary tumor not directly injected
  tumor death in secondary carcinomas: tumor death also effectively occurred
tumor
  final tumor weight: decreased in a concentration-dependent manner
  tumor growth: decreased in a concentration-dependent manner
